As a reminder, the bioavailability is the share of a dose that reaches the circulation, judged against a reference dose that is usually intravenous. A low value points to poor availability. The half-life is how long it takes for the measured level to halve. A higher half-life goes with slow decline. As usually defined, the Cmax is the maximum level reached in the sampled fluid or tissue. A word on the clearance: it is the rate of elimination divided by the concentration. As usually defined, the Vd is a proportionality between amount in the body and measured concentration, not a real space. The low end stands for confinement near the circulation, the high end for extensive tissue distribution. As usually defined, the AUC is the area under the concentration-time curve, a measure of exposure. Low readings indicate less exposure, high ones more exposure.

The nature of data set [1]: (§1) Oral bioavailability in mouse at 30 mg/kg. In kind it is ADME, organism-based. To be noted: in vivo.
Data set [2] in a line: Half life in mouse at 30 mg/kg, po. The data set is classed as ADME, organism-based. Also on record: dose 30 mg/kg, route oral. To be noted: in vivo.
A short description of data set [3]: Cmax in mouse at 30 mg/kg, po. More on the design: dose 30 mg/kg, route oral. To be noted: in vivo. The data set is classed as ADME, organism-based.
A short description of data set [4]: Clearance in mouse at 3 mg/kg, iv. As to conditions: in vivo. Also on record: dose 3 mg/kg, route intravenous. In kind it is ADME, organism-based.
The nature of data set [5]: Volume of distribution in mouse at 3 mg/kg, iv. The data set is classed as ADME, organism-based. More on the design: dose 3 mg/kg, route intravenous. As to conditions: in vivo.
A short description of data set [6]: (§2) AUC in mouse at 30 mg/kg, po. More on the design: dose 30 mg/kg, route oral. In kind it is ADME, organism-based, Plasma. As to conditions: plasma.
The test system of data set [7] is Mus musculus. Described as §1. In kind it is ADME, organism-based. As to conditions: in vivo.
The subject of data set [8] is Mus musculus. The description is as §2. In kind it is ADME, organism-based, Plasma. Also on record: dose 30 mg/kg, route oral. As to conditions: in vivo.

Structures are written as SMILES.

Molecule `COc1cc2nc(-c3ccsc3)c(CNCCc3ccc(Br)cc3)cc2cc1O` came in with a bioavailability in data set [1] of 10%. This molecule gave a half-life in data set [2] of 7.7 h. In data set [3], this molecule showed a Cmax of 500 ng/mL. Also, the clearance in data set [4] is 29 mL/min/kg. In addition, in data set [5], the Vd was determined as 1.4 L/kg. In data set [6], this molecule registered an AUC of 860 ng·h/mL.

In the case of `Oc1ccc2cc(CNCCc3ccc(Br)cc3)c(-c3ccsc3)nc2c1`, in the data set on Mus musculus [7], the F is 9%. For the same molecule, the half-life in data set [2] is 4.4 h. The molecule also had a Cmax in data set [3] of 370 ng/mL. This molecule returned a Vd in data set [5] of 2.4 L/kg. In the data set with Mus musculus [8], this molecule registered an AUC of 400 ng·h/mL.

Values taken from ChEMBL document CHEMBL1255552, “Synthesis and SAR of 2-aryl-3-aminomethylquinolines as agonists of the bile acid receptor TGR5” (Bioorg Med Chem Lett, 2010).
